Entries after “also recorded” stand apart in the source; their conditions may differ.
Experiments:
[1] = test system: H-Ras-transformed Rat-I (EJ) fibroblasts; settings: cited from earlier work
[2] = test system: K-Ras 4B (12V), N-Ras (13V) and N-Ras (61L); settings: membranes of rodent fibroblasts and of human tumor cell lines; cited from earlier work
[3] = molecular target: T1, Ras-IDRA complex (34-43 kDa) (Rattus norvegicus, UniProt P11762); test: Chemical cross-linking (DSS/DSP) of Ras-IDRA complexes in EJ cells and membranes, SDS-PAGE, Ras Ab immunoblot, purification; assay type: cell-based
T1 construct: expressed in transfected cells; host or cells: EJ cells (Rat-1 transformed with H-Ras (12V)) and their membranes; galectin-1 is endogenous
Experimental: FIG. 1 is a photograph of an electrophoretic gel illustrating use of Ras antibodies and chemical cross-linkers for identification of Ras IDRA complexes that are sensitive to the Ras inhibitor, FTS. Ras antibodies (Ab) identify Ras and Ras-IDRA complex in EJ cell membranes. Membranes corresponding to 10^6 control or FTS (50 μM)-treated EJ cells were incubated in 50 mM sodium bicarbonate buffer, pH 8.5, containing protease inhibitors and 2% DMSO (no cross-linker controls) or the indicated concentrations of the cross-linkers DSS or DSP. Samples of Triton X-100 extracts of the membranes were subjected to SDS-PAGE under non-reducing conditions followed by Western immunoblotting with Ras Ab. Open arrow corresponds to Ras (21 kDa) and closed arrow corresponds to the major Ras-putative IDRA band (34-43 kDa) detected in the blot under these conditions. This band is not detected in the blots of the non cross-linked samples or in the blots of the cross-linked samples of FTS-treated cells.
We used chemical cross-linkers in an attempt to identify the rapidly dissociating complexes of Ras and Ras-interacting proteins. […] When membranes of control and FTS-treated cells were exposed to these cross-linkers solubilized and fractionated on SDS-containing gels, Ras-immunoreactive bands were clearly detected at 34-43 kDa, 50 kDa, and 70 kDa (FIG. 1). […]

[4] = test system: prenylated Rac-1 and Rho A; settings: human melanoma cells; cited from earlier work
myr-Ras = settings: myr-Ras-transformed cells; cited from earlier work
[5] = test system: fibroblasts transformed by ErbB2; settings: ErbB2 acting upstream of Ras; cited from earlier work
membrane galectin-1 = molecular target: T2, membrane galectin-1 (Rattus norvegicus, UniProt P11762); test: Membrane galectin-1 in intact EJ cells treated with FTS or GTS (Western blot); assay type: cell-based; settings: for reduction in the amount of membrane galectin-1: intact EJ cells, without cross-linking, Western blot (FIG. 3)
T2 construct: endogenous in cells; host or cells: EJ cells (H-Ras (12V)-transformed Rat-1 fibroblasts)
Description: FIG. 3 is a photograph of a Western blot of galectin-1 isolated from cells in the presence of a control, FTS and GTS.
Yet another aspect of the present invention is directed to a method of determining efficacious dosages of a Ras antagonist that disrupts Ras-anchor protein binding. In general, the method entails contacting cells with the antagonist in vivo or in vitro, collecting the cells following the contacting, isolating cell membranes from the collected cells, measuring decrease in anchor protein concentration per unit of cell membrane protein, and correlating the decrease with dosage of the Ras antagonist. In a preferred embodiment, a method for measuring the biological action of FTS and its analogs in vivo and in vitro is based on the suppression of the immunoassayable galectin-1 in H-Ras-transformed tumors. The basis of this assay depends upon the dose dependent loss of galectin-1 from cell membranes by FTS. Under maximal stimulation of tumor cells with FTS, 90% of galectin-1 is lost from membrane. This allows for an excellent dose response. A variation of this assay uses drug induced suppression of the anchor proteins in normal human lymphocytes isolated from patients being treated with FTS in phase 1 clinical trials. A dose of FTS or any other Ras antagonist that maximally suppresses galectin-1 (or the respective anchor protein of the antagonist) should be a dose that produces effects on other biological endpoints in vivo. When such assay is in mice and humans, therapeutically efficacious doses of Ras antagonists for humans can be determined.
(§1) In agreement with previous results [Kloog et al., 1999] FTS, but not GTS, reduced the amount of membrane Ras in the cells by 50-60% (data not shown). Similarly, FTS (but not GTS) induced a 90% reduction in the amount of membrane galectin-1 (FIG. 3). Thus, the magnitude of the FTS-induced galectin-1 decrease was much greater than that of Ras.

membrane Ras = molecular target: T3, membrane Ras (Homo sapiens, UniProt P01112, G12V); test: Membrane Ras in intact EJ cells treated with FTS or GTS; assay type: cell-based, rat; settings: without cross-linking, data not shown
T3 construct: expressed in transfected cells; host or cells: Rat-1 fibroblasts stably transformed with H-Ras (12V) (EJ cells)
Description: as §1

[6] = test system: cells transformed by v-Raf; settings: v-Raf acts independently of Ras; cited from earlier work
[7] = test system: prenylated Gβγ-subunits of heterotriimeric G-proteins; settings: Rat-1 cell membranes; cited from earlier work
Ras methylation = settings: in vitro; cited from earlier work
Ras-transformed cells = settings: Aharonson et al., 1998; cited from earlier work
[8] = test system: cells transformed with the farnesylated but unmethylated K-Ras 4B (12V) CVYL isoform; settings: cited from earlier work
H-Ras [9] = settings: cited from earlier work
H-Ras [10] = molecular target: H-Ras (Homo sapiens, UniProt P01112, G12V); settings: intact cells in vitro; dislodging H-Ras from its anchorage domains; cited from earlier work

T2 sequence (P11762 whole entry): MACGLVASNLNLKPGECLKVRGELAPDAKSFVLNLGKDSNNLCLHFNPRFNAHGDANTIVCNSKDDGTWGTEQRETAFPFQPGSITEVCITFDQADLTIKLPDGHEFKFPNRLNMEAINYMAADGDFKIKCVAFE
T1 sequence (P11762 2-135 limits assumed, one chain of several): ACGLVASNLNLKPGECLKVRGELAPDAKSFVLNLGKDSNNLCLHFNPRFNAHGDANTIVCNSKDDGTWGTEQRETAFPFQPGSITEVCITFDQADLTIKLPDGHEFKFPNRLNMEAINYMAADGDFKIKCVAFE

In the case of `CC(C)=CCC/C(C)=C/CC/C(C)=C/CSc1ccccc1C(=O)O` [FTS, S-trans, trans-farnesylthiosalicylic acid], the growth inhibition ([1]; H-Ras-transformed Rat-I (EJ) fibroblasts) is listed as “potent growth inhibitor”, the effective concentration range ([1]; affected specifically the membrane-bound H-Ras protein in these cells) is listed as 5 to 50 µM and the “dislodging of K-Ras 4B (12V), N-Ras (13V) and N-Ras (61L) from membranes” value [2] is listed as “dislodges”. The “34-43 kDa Ras-putative IDRA cross-linked band” value ([3]; FTS (50 μM)-treated EJ cells or membranes, DSS or DSP, Ras Ab blot (FIG. 1)) was “not detected; also recorded: not present”, the “amount of galectin-1 purified from cross-linked complexes of treated EJ cells” value ([3]; FTS-treated EJ cells, Western blot (FIG. 2)) was “reduces the amounts of anchor; also recorded: very low” and the “reduction of the amounts of prenylated Rac-1 and Rho A” value [4] was “did not reduce”. The “effect on myr-Ras” value (myr-Ras) was “no effect”, the “inhibition of growth of ErbB2-transformed fibroblasts” value [5] was “inhibits the growth” and the “levels of endogenous galectin-1 in EJ cells” value (membrane galectin-1; EJ cells, in parallel with the decrease in Ras) was “decreased the levels”. The “reduction in the amount of membrane galectin-1” value (membrane galectin-1) was 90%, the “reduction of the amount of membrane Ras in the cells” value (membrane Ras) was 50-60% and the “inhibition of growth of v-Raf-transformed cells” value [6] was “not the growth”. For the same compound, the “dislodging of prenylated Gβγ-subunits from membranes” value [7] was “did not dislodge”, the “inhibition of Ras methylation” value (Ras methylation) was “inhibit” and the “inhibition of growth of Ras-transformed cells” value (Ras-transformed cells) was “inhibited growth”. The “inhibition of growth of K-Ras 4B (12V) CVYL-transformed cells” value [8] was “inhibits growth”, the “inhibition of farnesylation of H-Ras” value (H-Ras [9]) was “did not inhibit” and the “total amount of cellular Ras” value (H-Ras [10]) was “reduced the total amount of cellular Ras”.

In the case of `CC(C)=CCC/C(C)=C/CC/C(C)=C/CC/C(C)=C/CSc1ccccc1C(=O)O` [GGTS], the “inhibition of growth of Ras-transformed cells” value (Ras-transformed cells) is listed as “inhibited growth”.

For `CC(C)=CCC/C(C)=C/CSc1ccccc1C(=O)O` [GTS], the “reduction in the amount of membrane galectin-1” value (membrane galectin-1) is given as “no effect and not”, the “reduction of the amount of membrane Ras in the cells” value (membrane Ras) is given as “not” and the “inhibition of growth of Ras-transformed cells” value (Ras-transformed cells) is given as “not”.

For `COC(=O)c1ccccc1SCC=C(C)CCC=C(C)CCC=C(C)C` [carboxy methylester analogue], the “inhibition of growth of Ras-transformed cells” value (Ras-transformed cells) is listed as “not”.
